pIC50: −log10 of the molar value.
Assays:
[1] = test system: HeLa; assay: Cytotoxicity against human HeLa cells after 3 days by SRB assay; assay type: functional, cell-based; details: 72 h
[2] = molecular target: Tubulin (Sus scrofa, UniProt P02554+P02550); assay: Inhibition of porcine tubulin polymerization by UV-Vis microplate reader analysis; assay type: protein assay
[3] = molecular target: Tubulin (Sus scrofa) (UniProt P02554+P02550); assay: Displacement of [3H]-colchicine from porcine tubulin at 20 uM preincubated for 1 hr followed by radioligand addition measured after 30 mins by DE81 filter-based scintillation spectrometric assay; assay type: protein assay
Chain of Tubulin (Sus scrofa) (P02550 whole entry, looked up): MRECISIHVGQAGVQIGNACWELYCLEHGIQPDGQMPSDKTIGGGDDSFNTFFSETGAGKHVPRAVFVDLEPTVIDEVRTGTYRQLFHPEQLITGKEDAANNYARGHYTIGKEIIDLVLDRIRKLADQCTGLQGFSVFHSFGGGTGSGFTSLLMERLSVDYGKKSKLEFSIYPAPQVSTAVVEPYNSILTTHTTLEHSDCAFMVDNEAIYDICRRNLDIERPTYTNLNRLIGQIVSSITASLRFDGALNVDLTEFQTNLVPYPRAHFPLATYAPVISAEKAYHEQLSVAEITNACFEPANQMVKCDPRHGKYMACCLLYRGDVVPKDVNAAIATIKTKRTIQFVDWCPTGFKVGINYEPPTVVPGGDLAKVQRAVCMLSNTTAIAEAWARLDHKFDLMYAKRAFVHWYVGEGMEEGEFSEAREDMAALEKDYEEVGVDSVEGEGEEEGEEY
Chain of Tubulin (Sus scrofa) (P02554 whole entry, looked up): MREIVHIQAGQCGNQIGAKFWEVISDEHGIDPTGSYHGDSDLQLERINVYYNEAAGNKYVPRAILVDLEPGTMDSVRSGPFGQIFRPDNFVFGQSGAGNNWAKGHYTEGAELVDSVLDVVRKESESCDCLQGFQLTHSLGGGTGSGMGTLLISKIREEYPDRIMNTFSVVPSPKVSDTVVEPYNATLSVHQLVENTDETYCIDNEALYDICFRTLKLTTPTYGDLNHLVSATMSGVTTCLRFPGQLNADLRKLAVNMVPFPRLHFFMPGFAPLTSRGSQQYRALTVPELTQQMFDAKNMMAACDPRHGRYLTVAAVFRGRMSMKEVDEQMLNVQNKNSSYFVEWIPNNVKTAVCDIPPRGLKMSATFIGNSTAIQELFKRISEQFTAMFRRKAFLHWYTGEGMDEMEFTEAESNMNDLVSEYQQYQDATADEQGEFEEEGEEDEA

Structure (SMILES) | pIC50 [1] | IC50 [2] [µM] | inhibition [3] [%]
COc1ccc(CNc2c(-c3cc([N+](=O)[O-])ccc3O)nc3ccccn23)cc1 | 6.68 | – | –
COc1ccc(Nc2c(-c3ccccc3O)nc3ccccn23)cc1 | < 5.00 | – | –
COc1ccc(CNc2c(-c3ccccc3O)nc3cccc(F)n23)cc1 | 7.34 | – | –
COc1ccc(CCNc2c(-c3ccccc3O)nc3ccccn23)cc1 | 5.09 | – | –
COc1ccc(CNc2c(-c3ccccc3O)nc3ccc(Br)cn23)cc1 | 6.09 | – | –
COc1ccc(CNc2c(-c3ccccc3O)nc3ccc(F)cn23)cc1 | 7.89 | 3.41 | 72.2
COc1ccc(CNc2c(-c3c(O)cc(OC)cc3OC)nc3ccccn23)cc1 | < 5.00 | – | –
COc1cc2c(c(OC)c1OC)-c1ccc(OC)c(=O)cc1[C@@H](NC(C)=O)CC2 [COLCHICINE] | 7.43 | – | –
COc1ccc(CNc2c(-c3ccccc3NS(C)(=O)=O)nc3ccccn23)cc1 | < 5.00 | – | –
COc1ccc(CNc2c(-c3ccccc3OC)nc3ccccn23)cc1 | 6.64 | – | –
COc1ccc(CNc2c(-c3cc(Cl)cc(Cl)c3O)nc3ccccn23)cc1 | 5.38 | – | –
COc1ccc(CNc2c(-c3ccccc3O)nc3cnccn23)cc1 | 7.43 | 7.16 | 41.1
COc1ccc(CNc2c(-c3ccccc3O)nc3ccccn23)cc1 | 7.82 | 4.35 | 66
COc1ccc(CNc2c(-c3ccccc3NC(C)=O)nc3ccccn23)cc1 | < 5.00 | – | –
